Data reported in patent publication US7473790B2 (Pfizer Inc., priority 2003, dated 2009).

Molecular target: T1, HCV polymerase (Hepatitis C virus genotype 1b, UniProt P26663)
T1 construct: 2.5 pmoles (0.15 μg) HCV polymerase protein in a final volume of 75 μL
Test: HCV polymerase primer/template-directed transcription assay (32P-GTP incorporation, filter binding)
Format: biochemical
Settings: recombinant HCV polymerase; 30 minutes at 30° C.; concentration giving 50% inhibition of polymerase-directed transcription; read-out: IC50
Summary of the method: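 IC50s come from triplicate cpm, refit with an enzyme-concentration (30 nM) correction when under 200 nM. Reactions ran 30 min at 30° C in Tris pH 7.2 with MgCl2, 1 μM GTP spiked with α-32P-GTP, biotin-dG12 primer and poly(rC)300 template, with 1% DMSO. Incorporated label was collected on DE filtermats and counted.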

T1 sequence (P26663 2420-3010): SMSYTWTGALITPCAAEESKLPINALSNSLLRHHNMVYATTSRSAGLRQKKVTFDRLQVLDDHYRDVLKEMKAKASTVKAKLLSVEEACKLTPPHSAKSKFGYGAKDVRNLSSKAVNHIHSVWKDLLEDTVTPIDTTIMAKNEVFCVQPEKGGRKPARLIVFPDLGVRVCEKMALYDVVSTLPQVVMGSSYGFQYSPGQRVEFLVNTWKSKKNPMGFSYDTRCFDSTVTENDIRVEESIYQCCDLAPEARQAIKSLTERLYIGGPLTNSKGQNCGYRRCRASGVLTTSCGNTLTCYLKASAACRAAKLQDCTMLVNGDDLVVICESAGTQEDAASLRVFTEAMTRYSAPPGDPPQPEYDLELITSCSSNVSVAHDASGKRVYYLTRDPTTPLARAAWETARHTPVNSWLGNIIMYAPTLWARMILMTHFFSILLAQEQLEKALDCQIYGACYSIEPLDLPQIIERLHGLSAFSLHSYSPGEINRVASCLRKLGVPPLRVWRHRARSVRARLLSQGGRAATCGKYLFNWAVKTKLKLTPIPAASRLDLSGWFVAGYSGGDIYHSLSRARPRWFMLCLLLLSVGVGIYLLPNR

Compound | IC50
Cc1cc(C)n2nc(CC3=C(O)CC(CCc4cccc(C(C)(C)C)c4)(C4CCCC4)OC3=O)nc2n1 (stereo not shown) [B(03), 6-[2-(3-tert-Butyl-phenyl)-ethyl]-6-cyclopentyl-3-(5,7-dimethyl-[1,2,4]triazolo[1,5-a]pyrimidin-2-ylmethyl)-4-hydroxy-5,6-dihydro-pyran-2-one] | 5 nM
Cc1cc(C)n2nc(CC3=C(O)CC(CCc4ccc(-c5c(C)noc5C)cc4)(C4CCCC4)OC3=O)nc2n1 (stereo not shown) [B(04), 6-Cyclopentyl-6-{2-[4-(3,5-dimethyl-isoxazol-4-yl)-phenyl]-ethyl}-3-(5,7-dimethyl-[1,2,4]triazolo[1,5-a]pyrimidin-2-ylmethyl)-4-hydroxy-5,6-dihydro-pyran-2-one] | 24 nM
COc1ccc(CCC2(C3CCCC3)CC(O)=C(Cc3ccc(-c4csnn4)cc3)C(=O)O2)cc1Cl (stereo not shown) [B(05), 6-[2-(3-Chloro-4-methoxy-phenyl)-ethyl]-6-cyclopentyl-4-hydroxy-3-(4-[1,2,3]thiadiazol-4-yl-benzyl)-5,6-dihydro-pyran-2-one] | 130 nM
COc1ccc(CCC2(C3CCCC3)CC(O)=C(Cc3ccc(-n4c(C)ccc4C)cc3)C(=O)O2)cc1Cl (stereo not shown) [B(06), 6-[2-(3-Chloro-4-methoxy-phenyl)-ethyl]-6-cyclopentyl-3-[4-(2,5-dimethyl-pyrrol-1-yl)-benzyl]-4-hydroxy-5,6-dihydro-pyran-2-one] | 150 nM
CCc1cc(CCC2(C3CCCC3)CC(O)=C(Cc3nc4nc(C)cc(C)n4n3)C(=O)O2)ccc1O (stereo not shown) [B(07), 6-Cyclopentyl-3-(5,7-dimethyl-[1,2,4]triazolo[1,5-a]pyrimidin-2-ylmethyl)-6-[2-(3-ethyl-4-hydroxy-phenyl)-ethyl]-4-hydroxy-5,6-dihydro-pyran-2-one] | 1 nM
Cc1cc(C)n2nc(CC3=C(O)CC(CCc4ccc(O)c(C(C)(C)C)c4)(C4CCCC4)OC3=O)nc2n1 (stereo not shown) [B(08), 6-[2-(3-tert-Butyl-4-hydroxy-phenyl)-ethyl]-6-cyclopentyl-3-(5,7-dimethyl-[1,2,4]triazolo[1,5-a]pyrimidin-2-ylmethyl)-4-hydroxy-5,6-dihydro-pyran-2-one] | 13 nM
COc1ccc(CCC2(C3CCCC3)CC(O)=C(Cc3nc4nc(C)cc(C)n4n3)C(=O)O2)cc1C (stereo not shown) [B(09), 6-Cyclopentyl-3-(5,7-dimethyl-[1,2,4]triazolo[1,5]pyrimidin-2-ylmethyl)-4-hydroxy-6-[2-(4-methoxy-3-methyl-phenyl)-ethyl]-5,6-dihydro-pyran-2-one] | 54 nM
CCOc1ccc(CCC2(C3CCCC3)CC(O)=C(Cc3nc4nc(C)cc(C)n4n3)C(=O)O2)cc1C (stereo not shown) [B(10), 6-Cyclopentyl-3-(5,7-dimethyl-[1,2,4]triazolo[1,5]pyrimidin-2-ylmethyl)-6-[2-(4-ethoxy-3-methyl-phenyl)-ethyl]-4-hydroxy-5,6-dihydro-pyran-2-one] | 53 nM
Cc1cc(C)n2nc(CC3=C(O)CC(CCc4ccc(OC(C)C)c(C)c4)(C4CCCC4)OC3=O)nc2n1 (stereo not shown) [B(11), 6-Cyclopentyl-3-(5,7-dimethyl-[1,2,4]triazolo[1,5]pyrimidin-2-ylmethyl)-4-hydroxy-6-[2-(4-isopropoxy-3-methyl-phenyl)-ethyl]-5,6-dihydro-pyran-2-one] | 19 nM
CCc1cccc(CCC2(C3CCCC3)CC(O)=C(Cc3nc4nc(C)cc(C)n4n3)C(=O)O2)c1 (stereo not shown) [B(12), 6-Cyclopentyl-3-(5,7-dimethyl-[1,2,4]triazolo[1,5]pyrimidin-2-ylmethyl)-6-[2-(3-ethyl-phenyl)-ethyl]-4-hydroxy-5,6-dihydro-pyran-2-one] | 26 nM
COc1ccc(CCC2(C3CCCC3)CC(O)=C(Cc3nc4nc(C)cc(C)n4n3)C(=O)O2)cc1Cl (stereo not shown) [B(13), 6-[2-(3-Chloro-4-methoxy-phenyl)-ethyl]-6-cyclopentyl-3-(5,7-dimethyl-[1,2,4]triazolo[1,5-a]pyrimidin-2-ylmethyl)-dihydro-pyran-2,4-dione] | 20 nM
CC(C)Oc1ccc(CCC2(C3CCCC3)CC(O)=C(Cc3nc4cc(Cl)ccc4n3C(C)C)C(=O)O2)cc1F (stereo not shown) [B(14), 3-(5-Chloro-1-isopropyl-1H-benzoimidazol-2-ylmethyl)-6-cyclopentyl-6-[2-(3-fluoro-4-isopropoxy-phenyl)-ethyl]-4-hydroxy-5,6-dihydro-pyran-2-one] | 630 nM
CC(C)Oc1ccc(CCC2(C3CCCC3)CC(O)=C(Cc3nc4ccccc4n3C)C(=O)O2)cc1F (stereo not shown) [B(16), 6-Cyclopentyl-6-[2-(3-fluoro-4-isopropoxy-phenyl)-ethyl]-4-hydroxy-3-(1-methyl-1H-benzoimidazol-2-ylmethyl)-5,6-dihydro-pyran-2-one] | 900 nM
COc1ccc(CC2=C(O)CC(CCc3ccc(OC)c(Cl)c3)(C3CCCC3)OC2=O)cc1 (stereo not shown) [B(17), 6-[2-(3-Chloro-4-methoxy-phenyl)-ethyl]-6-cyclopentyl-4-hydroxy-3-(4-methoxy-benzyl)-5,6-dihydro-pyran-2-one] | 1100 nM
Cc1cc(C)n2nc(CC3=C(O)CC(CCc4ccc(OC(C)C)c(F)c4)(C4CCCC4)OC3=O)nc2n1 (stereo not shown) [B(18)] | 21 nM
Cc1cc(C)n2nc(CC3=C(O)CC(CCc4ccc(F)c(Cl)c4)(C4CCCC4)OC3=O)nc2n1 (stereo not shown) [B(19), 6-[2-(3-Chloro-4-fluoro-phenyl)-ethyl]-6-cyclopentyl-3-(5,7-dimethyl-[1,2,4]triazolo[1,5]pyrimidin-2-ylmethyl)-4-hydroxy-5,6-dihydro-pyran-2-one] | 60 nM
CCOc1ccc(CCC2(C3CCCC3)CC(O)=C(Cc3nc4nc(C)cc(C)n4n3)C(=O)O2)cc1Cl (stereo not shown) [B(20), 6-[2-(3-Chloro-4-ethoxy-phenyl)-ethyl]-6-cyclopentyl-3-(5,7-dimethyl-[1,2,4]triazolo[1,5]pyrimidin-2-ylmethyl)-4-hydroxy-5,6-dihydro-pyran-2-one] | 4 nM
COc1ccc(CCC2(C3CCCC3)CC(O)=C(Cc3ccc(S(C)(=O)=O)cc3)C(=O)O2)cc1Cl (stereo not shown) [B(21), 6-[2-(3-Chloro-4-methoxy-phenyl)-ethyl]-6-cyclopentyl-4-hydroxy-3-(4-methanesulfonyl-benzyl)-5,6-dihydro-pyran-2-one] | 400 nM
COc1ccc(CCC2(C3CCCC3)CC(O)=C(Cc3ccc(C#N)cc3)C(=O)O2)cc1Cl (stereo not shown) [B(22), 4-{6-[2-(3-Chloro-4-methoxy-phenyl)-ethyl]-6-cyclopentyl-4-hydroxy-2-oxo-5,6-dihydro-2-pyran-3-ylmethyl}-benzonitrile] | 1200 nM
COc1ccc(CCC2(C3CCCC3)CC(O)=C(Cc3cccc(C#N)c3)C(=O)O2)cc1Cl (stereo not shown) [B(23), 3-{6-[2-(3-Chloro-4-methoxy-phenyl)-ethyl]-6-cyclopentyl-4-hydroxy-2-oxo-5,6-dihydro-2-pyran-3-ylmethyl}-benzonitrile] | 870 nM
COc1ccc(CCC2(C3CCCC3)CC(O)=C(Cc3ccc(-n4cccn4)cc3)C(=O)O2)cc1Cl (stereo not shown) [B(24), 6-[2-(3-Chloro-4-methoxy-phenyl)-ethyl]-6-cyclopentyl-4-hydroxy-3-(4-pyrazol-1-yl-benzyl)-5,6-dihydro-pyran-2-one] | 140 nM
COc1ccc(CCC2(C3CCCC3)CC(O)=C(Cc3ccc(-n4cncn4)cc3)C(=O)O2)cc1Cl (stereo not shown) [B(25), 6-[2-(3-Chloro-4-methoxy-phenyl)-ethyl]-6-cyclopentyl-4-hydroxy-3-(4-[1,2,4]triazol-1-yl-benzyl)-5,6-dihydro-pyran-2-one] | 240 nM
